In patent US20120101100A1 (priority 2008, published 2012):
Structures can show the parent of a compound that is named as a salt. Where two headings read alike, the source gives them in different places.

Target: S. aureus GyrB ATPase (Staphylococcus aureus, UniProt P0A0K8)
Assay: S. aureus (SAU) GyrB ATPase inhibition, malachite green phosphate detection (E. coli GyrA + S. aureus GyrB)
Format: biochemical
Settings: for inhibition at 1 µM: read-out: S. aureus (SAU) GyrB ATPase % Inhibition
Method in brief: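 E. coli GyrA and S. aureus GyrB (1.25 nM each) with 500 μM ATP and 5 μg/ml sheared salmon sperm DNA in 50 mM Hepes pH 7.5, 8.0 mM MgCl2. Released phosphate detected with ammonium molybdate/malachite green at 650 nm; 2% DMSO as 0% and 2 μM novobiocin as 100% inhibition; IC50 from 10 concentrations.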

[1] = compound concentration of 1.0 μM unless otherwise noted, average value where assay was carried out more than once

Sequence of S. aureus GyrB ATPase (P0A0K8 whole entry): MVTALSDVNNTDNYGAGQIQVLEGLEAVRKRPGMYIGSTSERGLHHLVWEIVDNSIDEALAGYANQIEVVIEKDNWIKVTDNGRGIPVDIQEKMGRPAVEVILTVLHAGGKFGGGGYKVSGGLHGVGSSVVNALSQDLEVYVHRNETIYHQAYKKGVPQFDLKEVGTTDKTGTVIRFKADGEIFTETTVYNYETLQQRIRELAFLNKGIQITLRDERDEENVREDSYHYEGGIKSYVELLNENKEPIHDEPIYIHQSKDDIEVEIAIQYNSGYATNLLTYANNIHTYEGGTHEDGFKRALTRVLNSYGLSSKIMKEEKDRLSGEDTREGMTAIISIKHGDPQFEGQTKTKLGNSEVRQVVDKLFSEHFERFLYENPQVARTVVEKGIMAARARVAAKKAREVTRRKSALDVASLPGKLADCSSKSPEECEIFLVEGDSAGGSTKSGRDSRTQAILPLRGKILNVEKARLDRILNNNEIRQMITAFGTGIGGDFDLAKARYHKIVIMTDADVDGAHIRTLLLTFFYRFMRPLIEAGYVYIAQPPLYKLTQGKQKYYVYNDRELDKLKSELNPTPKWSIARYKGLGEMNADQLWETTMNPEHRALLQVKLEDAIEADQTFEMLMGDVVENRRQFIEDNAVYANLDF
Sequence of S. aureus GyrB ATPase (P0AES4 whole entry, further chain): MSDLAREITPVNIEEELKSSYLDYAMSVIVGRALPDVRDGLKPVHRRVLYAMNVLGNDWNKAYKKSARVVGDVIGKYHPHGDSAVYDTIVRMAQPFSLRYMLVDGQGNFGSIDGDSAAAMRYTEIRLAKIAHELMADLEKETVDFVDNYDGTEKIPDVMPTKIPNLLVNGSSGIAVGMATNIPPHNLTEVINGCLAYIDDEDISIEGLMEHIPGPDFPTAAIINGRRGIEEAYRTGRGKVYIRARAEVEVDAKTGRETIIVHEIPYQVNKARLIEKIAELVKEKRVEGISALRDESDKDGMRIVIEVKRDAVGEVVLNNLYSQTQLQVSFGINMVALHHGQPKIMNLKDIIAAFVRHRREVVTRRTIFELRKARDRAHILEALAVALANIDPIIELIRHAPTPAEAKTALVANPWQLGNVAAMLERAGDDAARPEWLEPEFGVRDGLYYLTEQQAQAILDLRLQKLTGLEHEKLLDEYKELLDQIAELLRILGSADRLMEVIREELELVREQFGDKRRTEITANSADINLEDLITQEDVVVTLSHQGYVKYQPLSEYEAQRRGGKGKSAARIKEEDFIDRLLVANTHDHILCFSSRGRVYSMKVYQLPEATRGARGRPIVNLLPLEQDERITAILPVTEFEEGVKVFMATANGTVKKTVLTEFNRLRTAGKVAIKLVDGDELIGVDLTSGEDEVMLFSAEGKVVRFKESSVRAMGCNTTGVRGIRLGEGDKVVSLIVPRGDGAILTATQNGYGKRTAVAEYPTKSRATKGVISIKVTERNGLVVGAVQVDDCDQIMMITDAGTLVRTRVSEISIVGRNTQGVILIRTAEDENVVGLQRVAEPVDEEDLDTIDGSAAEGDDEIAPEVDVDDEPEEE

Row | SMILES | inhibition at 1 µM [1] | also measured
1 | CCNC(=O)Nc1cc(-c2nc(C(F)(F)F)cs2)c(-c2cncc(-c3nnc(NCCOC)o3)c2)cn1 [Example 153] | 100% | 
2 | CCNC(=O)Nc1cc(-c2nc(C(F)(F)F)cs2)c(-c2cncc(-c3ncc[nH]3)c2)cn1 [Example 25, 1-(5′-(1H-Imidazol-2-yl)-4-(4-(trifluoromethyl)thiazol-2-yl)-3,3′-bipyridin-6-yl)-3-ethylurea] | 100% | IC50 (10 compound concentrations, 500 μM ATP): 3 nM
3 | CCNC(=O)Nc1cc(-c2nc(-c3ccccn3)cs2)c(-c2nc(-c3ncccn3)c(-c3n[nH]c(=O)o3)s2)cn1 [Example 201] | 107% | 
4 | CCNC(=O)Nc1cc(-c2nc(C(F)(F)F)cs2)c(-c2cncc(S(C)(=O)=O)c2)cn1 [Example 22, 1-Ethyl-3-(5′-(methylsulfonyl)-4-(4-(trifluoromethyl)thiazol-2-yl)-3,3′-bipyridin-6-yl)urea] | 114% | 
5 | CCNC(=O)Nc1cc(-c2nc(C(F)(F)F)cs2)c(-c2cc(-c3nnc(C)o3)cnc2OCC2CCOCC2)cn1 [Example 113, 1-Ethyl-3-{5′-(5-methyl-1,3,4-oxadiazol-2-yl)-2′-(tetrahydro-2H-pyran-4-ylmethoxy)-4-[4-(trifluoromethyl)-1,3-thiazol-2-yl]-3,3′-bipyridin-6-yl}urea] | 45% | 
6 | CCNC(=O)Nc1cc(-c2nc(-c3ccccc3)cs2)c(-c2cncc(-c3n[nH]c(=O)o3)c2)cn1 [Example 11, 1-ethyl-3-(5′-(5-oxo-4,5-dihydro-1,3,4-oxadiazol-2-yl)-4-(4-phenylthiazol-2-yl)-3,3′-bipyridin-6-yl)urea] | 107% | 
7 | CCNC(=O)Nc1cc(-c2nnc(-c3ccccc3)o2)c(-c2cncc(-c3n[nH]c(=O)o3)c2)cn1 [Example 196] | 118% | 
8 | CCNC(=O)Nc1cc(N2C[C@@H](C)O[C@@H](C)C2)c(-c2cncc(-c3n[nH]c(=O)o3)c2)cn1 [Example 150] | 96% | 
9 | CCNC(=O)Nc1cc(-c2nc(C(F)(F)F)cs2)c(-c2cncc(-c3noc(=O)[nH]3)c2)cn1 [Example 19, 1-Ethyl-3-(5′-(5-oxo-4,5-dihydro-1,2,4-oxadiazol-3-yl)-4-(4-(trifluoromethyl)thiazol-2-yl)-3,3′-bipyridin-6-yl)urea] |  | inhibition at 1 µM: 110%
10 | CCNC(=O)Nc1cc(-c2nc(C(F)(F)F)cs2)c(-c2cncc(-c3nnc(N4CCCC(O)C4)o3)c2)cn1 (centres unmarked) [Example 181] | 97% | 
11 | CCNC(=O)Nc1cc(-c2nc(C(F)(F)F)c(CNCCN3CCOCC3)s2)c(-c2cncc(-c3nnc(C)o3)c2)cn1 [Example 55, 1-ethyl-3-(5′-(5-methyl-1,3,4-oxadiazol-2-yl)-4-(5-((2-morpholinoethylamino)methyl)-4-(trifluoromethyl)thiazol-2-yl)-3,3′-bipyridin-6-yl)urea] | 96% | 
12 | CCCCOc1ncc(-c2cnc(NC(=O)NCC)cc2-c2nc(C(F)(F)F)cs2)cc1-c1n[nH]c(=O)o1 [Example 40, 1-(6′-butoxy-5′-(5-oxo-4,5-dihydro-1,3,4-oxadiazol-2-yl)-4-(4-(trifluoromethyl)thiazol-2-yl)-3,3′-bipyridin-6-yl)-3-ethylurea] | 117% | 
13 | CCNC(=O)Nc1cc(-c2nc(C(F)(F)F)cs2)c(-c2cc(-c3n[nH]c(=O)o3)cnc2OC2CCCC2)cn1 [Example 217] | 95% | 
14 | CCNC(=O)Nc1cc(-c2nc(C(F)(F)F)cs2)c(-c2cncc(-c3nnc(N)o3)c2)cn1 [Example 136, 1-(5′-(5-Amino-1,3,4-oxadiazol-2-yl)-4-(4-(trifluoromethyl)thiazol-2-yl)-3,3′-bipyridin-6-yl)-3-ethylurea] | 102% | 
15 | CCNC(=O)Nc1cc(N2CC(C)OC(C)C2)c(-c2cncc(-c3n[nH]c(=O)o3)c2)cn1 (centres unmarked) [Example 149] | 94% | 
16 | CCNC(=O)Nc1cc(-c2nc(C(F)(F)F)cs2)c(-c2cc(OC(C)C)nc(-c3n[nH]c(=O)o3)c2)cn1 [Example 79, 1-ethyl-3-(2′-isopropoxy-6′-(5-oxo-4,5-dihydro-1,3,4-oxadiazol-2-yl)-4-(4-(trifluoromethyl)thiazol-2-yl)-3,4′-bipyridin-6-yl)urea] | 95% | 
17 | CCNC(=O)Nc1cc(-c2nc(C(F)(F)F)cs2)c(-c2cc(-c3n[nH]c(=O)o3)cnc2OC2CCCCC2)cn1 [Example 214] | 109% | 
18 | CCNC(=O)Nc1cc(-c2nnc(-c3ccccc3)o2)c(-c2ccnc(-c3nnc(C)o3)c2)cn1 [Example 229] | 99% | 
19 | CCNC(=O)Nc1cc(-c2nc(-c3cccc(OC)n3)cs2)c(-c2nc(-c3ncnn3C)c(-c3n[nH]c(=O)o3)s2)cn1 [Example 251, 1-ethyl-3-(4-(4-(6-methoxypyridin-2-yl)thiazol-2-yl)-5-(4-(1-methyl-1H-1,2,4-triazol-5-yl)-5-(5-oxo-4,5-dihydro-1,3,4-oxadiazol-2-yl)thiazol-2-yl)pyridin-2-yl)urea] | 99% | 

Row | SMILES | inhibition at 1 µM [1] | also measured
20 | CCNC(=O)Nc1cc(-c2nc(C(F)(F)F)cs2)c(-c2cc(-c3n[nH]c(=O)o3)cnc2OC)cn1 [Example 101, 1-Ethyl-3-(2′-methoxy-5′-(5-oxo-4,5-dihydro-1,3,4-oxadiazol-2-yl)-4-(4-(trifluoromethyl)thiazol-2-yl)-3,3′-bipyridin-6-yl)urea] | 97% | 
21 | CCNC(=O)Nc1cc(-c2nc(-c3ccccn3)cs2)c(-c2cncc(S(C)(=O)=O)c2)cn1 [Example 129] | 102% | 
22 | CCNC(=O)Nc1cc(-c2nc(C(F)(F)F)c(CNCCN3CCOCC3)s2)c(-c2cncc(-c3n[nH]c(=O)o3)c2)cn1 [Example 51, 1-ethyl-3-(5′-(5-hydroxy-1,3,4-oxadiazol-2-yl)-4-(5-((2-morpholinoethylamino)methyl)-4-(trifluoromethyl)thiazol-2-yl)-3,3′-bipyridin-6-yl)urea trihydrochloride] | 98% | 
23 | CCNC(=O)Nc1cc(-c2nc(C(F)(F)F)c(CNC3CCCC3)s2)c(-c2cncc(-c3n[nH]c(=O)o3)c2)cn1 [Example 53, 1-(4-(5-((cyclopentylamino)methyl)-4-(trifluoromethyl)thiazol-2-yl)-5′-(5-hydroxy-1,3,4-oxadiazol-2-yl)-3,3′-bipyridin-6-yl)-3-ethylurea hydrochloride] | 109% | 
24 | CCN(CC)C(=O)Nc1cc(-c2nc(C(F)(F)F)cs2)c(-c2cncc(-c3n[nH]c(=O)o3)c2)cn1 [Example 47, 1,1-diethyl-3-(5′-(5-oxo-4,5-dihydro-1,3,4-oxadiazol-2-yl)-4-(4-(trifluoromethyl)thiazol-2-yl)-3,3′-bipyridin-6-yl)urea] | 72% | 
25 | CCNC(=O)Nc1cc(-c2nnc(-c3ccccc3)o2)c(-c2nc(-c3n[nH]c(=O)o3)cs2)cn1 [Example 193] | 89% | 
26 | CCNC(=O)Nc1cc(-c2nc(C(F)(F)F)cs2)c(-c2cncc(-c3nnc(C(C)(C)O)o3)c2)cn1 [Example 263, 1-ethyl-3-(5′-(5-(2-hydroxypropan-2-yl)-1,3,4-oxadiazol-2-yl)-4-(4-(trifluoromethyl)thiazol-2-yl)-3,3′-bipyridin-6-yl)urea] | 100% | 
27 | CCNC(=O)Nc1cc(-c2nc(C(F)(F)F)cs2)c(-c2cc(-c3n[nH]c(=O)o3)cnc2OCCN2CCN(C)CC2)cn1 [Example 99, 1-Ethyl-3-(2′-(2-(4-methylpiperazin-1-yl)ethoxy)-5′-(5-oxo-4,5-dihydro-1,3,4-oxadiazol-2-yl)-4-(4-(trifluoromethyl)thiazol-2-yl)-3,3′-bipyridin-6-yl)urea] | 97% | 
28 | CCNC(=O)Nc1cc(-c2nc(C(F)(F)F)cs2)c(-c2cnc(-c3n[nH]c(=O)o3)cn2)cn1 [Example 190] | 100% | 
29 | CCNC(=O)Nc1cc(-c2nc(C(F)(F)F)cs2)c(-c2c[nH]c(=O)c(-c3nnc(C)o3)c2)cn1 [Example 261, 1-ethyl-3-(5-(5-(5-methyl-1,3,4-oxadiazol-2-yl)-6-oxo-1,6-dihydropyridin-3-yl)-4-(4-(trifluoromethyl)thiazol-2-yl)pyridin-2-yl)urea] | 96% | 
30 | CCNC(=O)Nc1cc(-c2nc(C(F)(F)F)cs2)c(-c2cncc(-c3nnc(NCCN(C)C)o3)c2)cn1 [Example 157] | 96% | 
31 | CCNC(=O)Nc1cc(-c2nc(C(F)(F)F)cs2)c(-c2cncc(-c3nnc(C)o3)c2)cn1 [Example 1, 1-Ethyl-3-(5′-(5-methyl-1,3,4-oxadiazol-2-yl)-4-(4-(trifluoromethyl)thiazol-2-yl)-3,3′-bipyridin-6-yl)urea] | 99% | 
32 | CCNC(=O)Nc1cc(-c2nc(C3CCCCC3)cs2)c(-c2cncc(-c3nnc(C)o3)c2)cn1 [Example 236, 1-(4-(4-cyclohexylthiazol-2-yl)-5′-(5-methyl-1,3,4-oxadiazol-2-yl)-3,3′-bipyridin-6-yl)-3-ethylurea] | 109% | 
33 | CCNC(=O)Nc1cc(-c2nc(C(F)(F)F)cs2)c(-c2cc(-c3n[nH]c(=O)o3)cnc2OCC2CC2)cn1 [Example 216] | 96% | 
34 | CCNC(=O)Nc1cc(N2CCCC(C)(C)C2)c(-c2cncc(-c3n[nH]c(=O)o3)c2)cn1 [Example 151] | 97% | 
35 | CCNC(=O)Nc1cc(-c2nc(C(F)(F)F)c(C)s2)c(-c2cnc(OC)c(-c3n[nH]c(=O)o3)c2)cn1 [Example 144] | 90% | 
36 | CCNC(=O)Nc1cc(-c2nc(C(F)(F)F)cs2)c(-c2cncc(-c3nn(C)c(=O)o3)c2)cn1 [Example 140] | 97% | 
37 | CCNC(=O)Nc1cc(-c2nc(C(F)(F)F)c(C(=O)NCCOC)s2)c(-c2cncc(-c3nnc(C)o3)c2)cn1 [Example 60, 2-(6-(3-ethylureido)-5′-(5-methyl-1,3,4-oxadiazol-2-yl)-3,3′-bipyridin-4-yl)-N-(2-methoxyethyl)-4-(trifluoromethyl)thiazole-5-carboxamide] | 92% | 
